Experimental data published in the supplement of paper PMC10307832.

Assays:
Test in all cases: relative viability (nuclei count vs DMSO), 5 days (fraction); higher = more cells survive
[1] = compound: CC1=C(CC(=O)O)c2cc(F)ccc2/C1=C\c1ccc([S+](C)[O-])cc1 [Sulindac] + Nc1nc2[nH]cc(CCc3ccc(C(=O)N[C@@H](CCC(=O)O)C(=O)O)cc3)c2c(=O)[nH]1 [Pemetrexed] (partner 0.2 µM)
In short: (§1)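 Values are medians from duplicate plates. Each reflects relative viability, defined as the nuclei count of treated wells over that of vehicle wells. Lung cancer cell lines in 1536-well plates were pin-tool dosed one day after seeding with one drug alone or with a fixed anchor-drug dose plus five library-drug doses (not always all listed) in √10 steps, then fixed, stained and imaged at 4× after 5 days.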

[2] = compound: CN[C@@H]1C[C@H]2O[C@@](C)([C@@H]1OC)n1c3ccccc3c3c4c(c5c6ccccc6n2c5c31)C(=O)NC4 [Staurosporine] + COc1cc2c(Oc3ccc(NC(=O)C4(C(=O)Nc5ccc(F)cc5)CC4)cc3F)ccnc2cc1OCCCN1CCOCC1 [Foretinib] (partner 0.25 µM)
In short: as §1

[3] = compound: CN[C@@H]1C[C@H]2O[C@@](C)([C@@H]1OC)n1c3ccccc3c3c4c(c5c6ccccc6n2c5c31)C(=O)NC4 [Staurosporine] + CS(=O)(=O)N1CCN(Cc2cc3nc(-c4cccc5[nH]ncc45)nc(N4CCOCC4)c3s2)CC1 [Pictilisib] (partner 1 µM)
In short: as §1

[4] = compound: O=c1[nH]cc(F)c(=O)[nH]1 [5-Fluorouracil] + Cc1nc(NC(=O)N2CCC[C@H]2C(N)=O)sc1-c1ccnc(C(C)(C)C(F)(F)F)c1 [Alpelisib] (partner 2 µM)
In short: as §1

Cell Line | relative viability ([1]; first compound 0.08 µM) | relative viability ([1]; first compound 0.253 µM) | relative viability ([1]; first compound 0.8 µM) | relative viability ([1]; first compound 2.53 µM) | relative viability ([1]; first compound 8 µM) | relative viability ([2]; first compound 0.005 µM) | relative viability ([2]; first compound 0.01581 µM) | relative viability ([2]; first compound 0.05 µM) | relative viability ([2]; first compound 0.1581 µM) | relative viability ([3]; first compound 0.005 µM) | relative viability ([3]; first compound 0.01581 µM) | relative viability ([3]; first compound 0.05 µM) | relative viability ([3]; first compound 0.1581 µM) | relative viability ([3]; first compound 0.5 µM) | relative viability ([4]; first compound 0.02 µM) | relative viability ([4]; first compound 0.2 µM) | relative viability ([4]; first compound 0.6325 µM) | relative viability ([2]; first compound 0.5 µM) | relative viability ([4]; first compound 2 µM)
HCC-78 | 0.923 | 0.878 | 0.751 | 0.924 | 0.953 | 0.537 | 0.459 | 0.429 | 0.486 | 0.212 | 0.175 | 0.178 | 0.223 | 0.206 | 0.242 | 0.281 | 0.235 | – | –
HCC-366 | 0.205 | 0.183 | – | 0.14 | 0.172 | 1.07 | – | 0.799 | 0.105 | 0.106 | 0.0757 | 0.0691 | 0.0727 | 0.0401 | 0.227 | 0.466 | 0.182 | 0.303 | 0.0921
HCC-827 | 0.286 | 0.282 | 0.249 | 0.241 | 0.26 | 1.06 | 0.589 | 0.645 | 0.381 | 1.24 | 0.812 | 0.559 | 0.552 | 0.43 | 0.777 | 0.888 | 0.681 | 0.395 | 0.451
HOP-62 | 0.412 | 0.27 | 0.31 | 0.258 | 0.389 | 0.801 | 0.233 | 0.142 | 0.125 | 0.182 | 0.0895 | 0.0986 | 0.0751 | 0.0641 | 0.835 | 1.03 | 0.844 | 0.119 | 0.754
IA-LM | – | – | – | – | – | 0.423 | 0.109 | 0.139 | 0.1 | 0.266 | 0.323 | 0.256 | 0.0809 | 0.0459 | 0.682 | 0.37 | 0.175 | 0.0733 | 0.182
LC-2-ad | 0.29 | 0.27 | 0.273 | 0.263 | 0.254 | 0.845 | 0.537 | 0.236 | 0.175 | 0.591 | 0.159 | 0.143 | 0.0807 | 0.0527 | 0.878 | 0.884 | 0.514 | 0.169 | 0.339
LCLC-97TM1 | 0.205 | 0.178 | 0.147 | 0.177 | 0.198 | 0.988 | 0.558 | 0.454 | 0.382 | 0.197 | 0.0972 | 0.152 | 0.119 | 0.153 | 0.205 | 0.224 | 0.208 | 0.461 | 0.161
LCLC-103H | 0.458 | 0.45 | 0.505 | 0.44 | 0.491 | 0.668 | 0.178 | 0.171 | 0.161 | 0.495 | 0.211 | 0.274 | 0.193 | 0.158 | 0.984 | 0.983 | 0.699 | 0.142 | 0.403
LK-2 | 0.315 | 0.29 | 0.228 | 0.221 | 0.293 | 1.07 | – | 1.09 | 0.437 | 0.789 | 0.812 | 0.466 | 0.199 | 0.0791 | 1.3 | 0.606 | 0.803 | 0.409 | 0.578
LOU-NH91 | 0.305 | 0.358 | 0.413 | 0.423 | 0.374 | 0.923 | 0.816 | 0.627 | 0.512 | 0.521 | 0.38 | 0.338 | 0.277 | 0.279 | 0.679 | 0.706 | 0.57 | 0.238 | 0.466
LU99A | 0.181 | 0.159 | 0.214 | 0.193 | 0.179 | 0.739 | 0.505 | 0.342 | 0.264 | 0.187 | 0.158 | 0.186 | 0.122 | 0.114 | 0.495 | 0.566 | 0.47 | 0.219 | 0.353
LXF-289 | 0.99 | 0.876 | 0.806 | 0.9 | 0.942 | 1.01 | 0.164 | 0.268 | 0.0989 | 0.48 | – | 0.111 | 0.0648 | 0.0482 | 1.03 | 0.595 | 0.353 | 0.0792 | 0.286
NCI-H522 | 0.859 | 0.985 | 1.05 | 0.88 | 0.96 | – | – | – | – | – | – | – | – | – | – | – | – | – | –
NCI-H727 | – | – | – | – | – | 0.652 | 0.542 | 0.428 | 0.37 | 0.486 | 0.293 | 0.2 | 0.223 | 0.12 | 0.545 | 0.582 | 0.641 | 0.29 | 0.577
NCI-H1299 | – | – | – | – | – | 0.893 | 0.352 | 0.231 | 0.121 | 0.121 | 0.119 | 0.109 | 0.0457 | 0.0455 | 1.11 | 1.14 | 0.953 | 0.132 | 0.763
NCI-H1623 | – | – | – | – | – | 0.967 | 0.643 | 0.925 | 0.731 | – | – | – | – | – | – | – | – | 0.341 | –
NCI-H1648 | 0.889 | 0.781 | – | 0.569 | 0.787 | – | – | – | – | – | – | – | – | – | – | – | – | – | –
NCI-H1650 | 0.443 | 0.391 | 0.349 | 0.377 | 0.385 | 0.927 | 0.586 | 0.201 | 0.216 | 0.284 | 0.141 | 0.138 | 0.15 | 0.107 | – | – | – | 0.133 | –
NCI-H1703 | – | – | – | – | – | 0.303 | 0.246 | 0.196 | 0.2 | 0.223 | 0.175 | 0.191 | 0.163 | 0.114 | 0.279 | 0.327 | 0.371 | 0.156 | 0.359
NCI-H1792 | 0.867 | 0.903 | – | 0.794 | 0.827 | – | – | – | – | 0.25 | 0.0859 | 0.0905 | 0.106 | – | 0.691 | 0.606 | 0.168 | – | 0.116
NCI-H2342 | 0.742 | 0.714 | 0.739 | 0.746 | 0.781 | 1.01 | 0.816 | 0.486 | 0.516 | – | – | – | – | – | – | – | – | 0.4 | –
SW 900 | 0.532 | 0.492 | – | – | 0.453 | 0.388 | 0.331 | 0.406 | 0.22 | – | – | – | – | – | – | – | – | 0.144 | –
